Measured values published in US12590091B2, “1H-pyrrolo[3,2-C]pyridine and 1H-pyrrolo[2,3-C]pyridine derivatives as TLR9 inhibitors for the treatment of fibrosis” (BRISTOL-MYERS SQUIBB COMPANY, priority 2020, dated 2026).

How the values were obtained:
[1] = target: T1, human TLR7 (Homo sapiens, UniProt Q9NYK1); assay: TLR7 inhibition reporter assay (HEK-Blue cells, SEAP reporter); format: cell-based; conditions: HEK-Blue cells overexpressing human TLR7, stimulated with gardiquimod 7.5 μM, 22 hour incubation
T1 construct: host or cells: HEK-Blue cells
T1 sequence (Q9NYK1 27-1049): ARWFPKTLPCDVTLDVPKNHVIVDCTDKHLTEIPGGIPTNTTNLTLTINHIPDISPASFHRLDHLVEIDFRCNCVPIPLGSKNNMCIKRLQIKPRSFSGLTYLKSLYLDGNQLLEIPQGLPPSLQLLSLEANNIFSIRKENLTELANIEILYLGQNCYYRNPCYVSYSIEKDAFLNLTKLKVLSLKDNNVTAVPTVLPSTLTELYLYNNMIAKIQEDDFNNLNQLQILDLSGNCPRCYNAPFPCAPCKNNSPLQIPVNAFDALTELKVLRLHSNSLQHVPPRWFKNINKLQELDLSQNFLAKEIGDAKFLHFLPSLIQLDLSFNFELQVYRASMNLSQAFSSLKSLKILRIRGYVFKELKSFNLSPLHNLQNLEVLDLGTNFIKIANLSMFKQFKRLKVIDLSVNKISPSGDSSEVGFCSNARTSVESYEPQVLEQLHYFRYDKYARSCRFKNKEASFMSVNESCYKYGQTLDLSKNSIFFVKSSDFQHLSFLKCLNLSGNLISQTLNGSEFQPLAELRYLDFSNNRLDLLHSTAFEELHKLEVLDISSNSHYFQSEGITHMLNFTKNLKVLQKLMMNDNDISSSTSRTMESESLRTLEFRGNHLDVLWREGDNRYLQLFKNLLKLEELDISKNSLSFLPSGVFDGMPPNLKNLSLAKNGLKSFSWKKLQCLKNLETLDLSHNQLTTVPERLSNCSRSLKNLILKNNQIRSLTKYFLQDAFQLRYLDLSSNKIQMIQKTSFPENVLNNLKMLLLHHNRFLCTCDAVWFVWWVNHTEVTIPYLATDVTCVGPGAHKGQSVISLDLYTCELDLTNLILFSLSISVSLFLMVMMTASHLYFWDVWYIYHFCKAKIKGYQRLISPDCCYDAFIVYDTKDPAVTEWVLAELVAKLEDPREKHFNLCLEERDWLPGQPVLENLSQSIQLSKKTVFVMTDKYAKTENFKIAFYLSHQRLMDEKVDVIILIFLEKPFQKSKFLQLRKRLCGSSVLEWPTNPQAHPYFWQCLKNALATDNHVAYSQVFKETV
Summary of the method: (§1)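 Dose–response from 0.05 nM to 50 μM was run in HEK-Blue human TLR7, TLR8 and TLR9 reporter cells. After 30 min at room temperature with compound, ligand was added (TLR7 gardiquimod 7.5 μM; TLR8 R848 15.9 μM; TLR9 ODN2006 5 nM) and SEAP measured next day, at 22 h.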

[2] = target: T2, human TLR8 (Homo sapiens, UniProt Q9NR97); assay: TLR8 inhibition reporter assay (HEK-Blue cells, SEAP reporter); format: cell-based; conditions: HEK-Blue cells overexpressing human TLR8, stimulated with R848 15.9 μM, 22 hour incubation
T2 construct: host or cells: HEK-Blue cells
T2 sequence (Q9NR97 27-1041): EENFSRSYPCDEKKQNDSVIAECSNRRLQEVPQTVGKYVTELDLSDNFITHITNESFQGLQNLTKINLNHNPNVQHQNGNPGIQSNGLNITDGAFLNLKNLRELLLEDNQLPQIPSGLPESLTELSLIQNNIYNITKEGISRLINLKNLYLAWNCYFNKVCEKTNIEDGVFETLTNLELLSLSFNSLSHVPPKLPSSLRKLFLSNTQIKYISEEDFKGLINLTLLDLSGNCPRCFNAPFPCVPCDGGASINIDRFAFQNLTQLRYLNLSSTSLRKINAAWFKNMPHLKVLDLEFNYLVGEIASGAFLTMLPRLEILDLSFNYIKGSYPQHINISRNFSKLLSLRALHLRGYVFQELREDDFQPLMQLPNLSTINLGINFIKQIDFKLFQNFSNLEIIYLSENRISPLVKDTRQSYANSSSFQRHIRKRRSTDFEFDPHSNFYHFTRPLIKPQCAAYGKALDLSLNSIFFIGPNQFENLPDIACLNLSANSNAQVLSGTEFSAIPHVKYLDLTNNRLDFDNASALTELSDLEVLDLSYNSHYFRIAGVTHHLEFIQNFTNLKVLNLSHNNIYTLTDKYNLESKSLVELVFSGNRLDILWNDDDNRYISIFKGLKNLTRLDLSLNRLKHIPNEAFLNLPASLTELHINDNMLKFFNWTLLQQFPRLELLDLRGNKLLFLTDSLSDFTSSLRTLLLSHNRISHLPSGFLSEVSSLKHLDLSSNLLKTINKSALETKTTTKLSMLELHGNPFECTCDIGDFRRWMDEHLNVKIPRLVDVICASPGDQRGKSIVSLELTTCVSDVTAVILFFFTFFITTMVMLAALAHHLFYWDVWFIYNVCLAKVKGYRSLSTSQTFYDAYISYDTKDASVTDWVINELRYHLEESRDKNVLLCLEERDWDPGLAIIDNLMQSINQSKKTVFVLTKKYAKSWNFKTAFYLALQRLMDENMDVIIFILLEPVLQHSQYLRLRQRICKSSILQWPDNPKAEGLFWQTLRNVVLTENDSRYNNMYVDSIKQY
Summary of the method: as §1

Row | Structure (SMILES) | IC50 [1] [µM] | IC50 [2] [µM]
1 | Cc1nc(-c2ccc([C@]3(O)CCN(C(C)C)C(C)(C)C3)c(F)c2)cc2c1cc(-c1ccc(S(C)(=O)=O)cc1)n2C [Example 106, (S)-4-(4-(1,4-dimethyl-2-(4-(methylsulfonyl)phenyl)-1H-pyrrolo[3,2-c]pyridin-6-yl)-2-fluorophenyl)-1-isopropyl-2,2-dimethylpiperidin-4-ol] | 1.5 | 0.7
2 | Cc1nc(-c2ccc(C3(O)CCN(C(C)C)CC3)c(F)c2)cc2c1cc(-c1ccc(S(C)(=O)=O)cc1)n2C [Example 107, 4-(4-(1,4-dimethyl-2-(4-(methylsulfonyl)phenyl)-1H-pyrrolo[3,2-c]pyridin-6-yl)-2-fluorophenyl)-1-isopropylpiperidin-4-ol] | 2.1 | 2.7
3 | Cc1nc(-c2ccc(C3(O)CCN(C(C)(C)C)CC3)cc2F)cc2c1cc(-c1ccc(S(C)(=O)=O)cc1)n2C [Example 108, 1-(tert-butyl)-4-(4-(1,4-dimethyl-2-(4-(methylsulfonyl)phenyl)-1H-pyrrolo[3,2-c]pyridin-6-yl)-3-fluorophenyl)piperidin-4-ol] | 1.7 | 1.5
4 | Cc1nc(-c2ccc(C3(O)CCN(C(C)C)CC3)cc2F)cc2c1cc(-c1ccc(S(C)(=O)=O)cc1)n2C [Example 109, 4-(4-(1,4-dimethyl-2-(4-(methylsulfonyl)phenyl)-1H-pyrrolo[3,2-c]pyridin-6-yl)-3-fluorophenyl)-1-isopropylpiperidin-4-ol] | 1.3 | 1.1
5 | Cc1nc(C2CCN(C3CC4CCC(C3)N4CC(C)C)CC2)cc2c1cc(-c1ccc(S(C)(=O)=O)cc1)n2C (centres unmarked) [Example 114, 6-(1-(8-isobutyl-8-azabicyclo[3.2.1]octan-3-yl)piperidin-4-yl)-1,4-dimethyl-2-(4-(methylsulfonyl)phenyl)-1H-pyrrolo[3,2-c]pyridine] | 14.2 | > 50
6 | Cc1nc(-c2ccc(CN3CCN(CCC(C)(C)O)CC3)cc2)cc2c1c(F)c(-c1ccc(S(C)(=O)=O)cc1)n2C [Example 115, 4-(4-(4-(3-fluoro-1,4-dimethyl-2-(4-(methylsulfonyl)phenyl)-1H-pyrrolo[3,2-c]pyridin-6-yl)benzyl)piperazin-1-yl)-2-methylbutan-2-ol] | 16 | 2.1
7 | Cc1nc(-c2ccc(CN3CCN(CCC(C)(C)O)CC3)cc2)cc2c1cc(-c1ccc(S(C)(=O)=O)cc1)n2C1CC1 [Example 116, 4-[4-[[4-[1-cyclopropyl-4-methyl-2-(4-methylsulfonylphenyl)pyrrolo[3,2-c]pyridin-6-yl]phenyl]methyl]piperazin-1-yl]-2-methyl-butan-2-ol] | 3.2 | 19

More lines, now with the values ahead:

Row | IC50 [1] [µM] | IC50 [2] [µM] | Structure (SMILES)
8 | 1.7 | 8.1 | CC(C)N1CCN(c2ccc(-c3cc4c(cc(-c5ccc(S(C)(=O)=O)cc5)n4C)c(C(C)(C)O)n3)cc2)CC1 [Example 118, 2-[6-[4-(4-isopropylpiperazin-1-yl)phenyl]-1-methyl-2-(4-methylsulfonylphenyl)pyrrolo[3,2-c]pyridin-4-yl]propan-2-ol]
9 | 0.6 | > 50 | CC(C)(O)CN1C2CCC1CN(Cc1ccc(-c3cc4c(cn3)cc(-c3ccc(S(C)(=O)=O)cc3)n4C3CC3)cc1)C2 [Example 121, 1-[3-[[4-[1-cyclopropyl-2-(4-methylsulfonylphenyl)pyrrolo[3,2-c]pyridin-6-yl]phenyl]methyl]-3,8-diazabicyclo[3.2.1]octan-8-yl]-2-methyl-propan-2-ol]
10 | 17.1 | 3.7 | Cc1nc(-c2ccc(CN3CCN(CC(C)(C)O)CC3)cc2)cc2c1c(F)c(-c1ccc(S(C)(=O)=O)cc1)n2C [Example 122, 1-(4-(4-(3-fluoro-1,4-dimethyl-2-(4-(methylsulfonyl)phenyl)-1H-pyrrolo[3,2-c]pyridin-6-yl)benzyl)piperazin-1-yl)-2-methylpropan-2-ol]
11 | 3.7 | 17.6 | Cc1nc(-c2ccc(CN3CCN(CC(C)(C)O)CC3)cc2)cc2c1cc(-c1ccc(S(C)(=O)=O)cc1)n2C1CC1 [Example 123, 1-(4-(4-(1-cyclopropyl-4-methyl-2-(4-(methylsulfonyl)phenyl)-1H-pyrrolo[3,2-c]pyridin-6-yl)benzyl)piperazin-1-yl)-2-methylpropan-2-ol]
12 | > 50 | > 50 | Cc1nc(-c2ccc(CN3CCN(CC(C)(C)O)CC3)cc2)cc2c1cc(-c1ccc(S(C)(=O)=O)cc1)n2C(F)F [Example 124, 1-(4-(4-(1-(difluoromethyl)-4-methyl-2-(4-(methylsulfonyl)phenyl)-1H-pyrrolo[3,2-c]pyridin-6-yl)benzyl)piperazin-1-yl)-2-methylpropan-2-ol]
13 | 3.1 | 11.3 | CC(C)N1CCN(Cc2ccc(-c3cc4c(cc(-c5ccc(S(C)(=O)=O)cc5)n4C)c(C(C)(C)O)n3)cc2)CC1 [Example 125, 2-(6-(4-((4-isopropylpiperazin-1-yl)methyl)phenyl)-1-methyl-2-(4-(methylsulfonyl)phenyl)-1H-pyrrolo[3,2-c]pyridin-4-yl)propan-2-ol]
14 | 2.8 | 7.9 | CC(C)(O)CN1CCN(Cc2ccc(-c3cc4c(cn3)cc(-c3ccc(S(C)(=O)=O)cc3)n4C3CC3)cc2)CC1 [Example 128, 1-(4-(4-(1-cyclopropyl-2-(4-(methylsulfonyl)phenyl)-1H-pyrrolo[3,2-c]pyridin-6-yl)benzyl)piperazin-1-yl)-2-methylpropan-2-ol]
15 | 3.6 | 5.6 | CC(C)(O)CCN1CCN(Cc2ccc(-c3cc4c(cn3)cc(-c3ccc(S(C)(=O)=O)cc3)n4C3CC3)cc2)CC1 [Example 129, 4-(4-(4-(1-cyclopropyl-2-(4-(methylsulfonyl)phenyl)-1H-pyrrolo[3,2-c]pyridin-6-yl)benzyl)piperazin-1-yl)-2-methylbutan-2-ol]
16 | 1.9 | 6.4 | CC(C)(O)CN1CC2CCC(C1)N2Cc1ccc(-c2cc3c(cn2)cc(-c2ccc(S(C)(=O)=O)cc2)n3C2CC2)cc1 [Example 130, 1-(8-(4-(1-cyclopropyl-2-(4-(methylsulfonyl)phenyl)-1H-pyrrolo[3,2-c]pyridin-6-yl)benzyl)-3,8-diazabicyclo[3.2.1]octan-3-yl)-2-methylpropan-2-ol]
